Columns and labels:
PI3Kα = test: PI3K isoform selectivity, α versus δ; format: biochemical
PI3Kβ = test: PI3K isoform selectivity, β versus δ; format: biochemical
[1] = Procedure: During dose escalation, patients received YY-20394 tablets q.d. at dosages of 20, 40, 80, 140 or 200 mg. The maximum tolerated dose (MTD), dose escalation phase and dose-limiting toxicity (DLT) as well as hematological toxicity classifications are described in Additional file 4. The primary endpoints were safety, tolerability and the MTD of YY-20394. Secondary endpoints were PK parameters and efficacy. Response criteria followed the revised International Research Working Group (IRWG) for non-Hodgkin lymphomas (NHL), and the International Working Group on Chronic Lymphocytic Leukemia (IWCLL) criteria for CLL [8]. Efficacy determinations were the objective response rate (ORR), disease control rate (DCR), complete remission (CR), partial remission (PR), stable disease (SD), progressive disease (PD) and progression-free survival (PFS).
The safety evaluation of YY-20394 included adverse events (AEs) and serious AEs (SAEs) by standard categorizations.
The maximum tolerated dose (MTD) was established during the dose escalation phase, based on dose-limiting toxicity (DLT) developments, which were defined as: death; grade IV hematological toxicity with a duration of 1 week; or non-hematological toxicities ≥ grade III. […] At the end of the tolerance test, the dose extension test was conducted, in which YY-20394 was administered for a period of 28 days per cycle until the disease progressed or toxicity developed beyond tolerance. Patients visited the clinic once a week during treatment cycle 1 and every 2 weeks during cycle 2 and once a month thereafter.

[2] = drug-related AE, n (%) of 25 evaluable patients

COc1ncc(-c2nc(N3CCOCC3)nc3c(CN4CCC(C(C)(C)O)CC4)cc(F)cc23)cc1NS(C)(=O)=O [YY-20394, N-[5-[6-fluoro-8-[[4-(1-hydroxy-1-methylethyl)-1-piperidinyl]methyl]-2-(4-morpholinyl)-4-quinazolinyl]-2-methoxy-3-pyridinyl]-methanesulfonamide]
Ratio of IC50 α/δ (PI3Kα): 252
Ratio of IC50 β/δ (PI3Kβ): 30
maximum tolerated dose (MTD) ([1]; 20–200 mg daily): not reached
Upper respiratory tract infection, number of patients with grade I/II at > 5% incidence [1, 2]: 4 (16.0)
Upper respiratory tract infection, number of patients with ≥ grade III [1, 2]: 1 (4.0)
Anemia, number of patients with grade I/II at > 5% incidence ([1]; human, in vivo): 3 (12.0)
Anemia, number of patients with ≥ grade III ([1]; human, in vivo): 0
Cough, number of patients with grade I/II at > 5% incidence ([1]; human, in vivo): 2 (8.0)
Cough, number of patients with ≥ grade III ([1]; human, in vivo): 0
Diarrhea, number of patients with grade I/II at > 5% incidence ([1]; human, in vivo): 2 (8.0)
Diarrhea, number of patients with ≥ grade III ([1]; human, in vivo): 0
Elevated alanine aminotransferase, number of patients with grade I/II at > 5% incidence ([1]; human, in vivo): 3 (12.0)
Elevated alanine aminotransferase, number of patients with ≥ grade III ([1]; human, in vivo): 0
Elevated aspartate aminotransferase, number of patients with grade I/II at > 5% incidence ([1]; human, in vivo): 2 (8.0)
Elevated aspartate aminotransferase, number of patients with ≥ grade III ([1]; human, in vivo): 0
Elevated bilirubin, number of patients with grade I/II at > 5% incidence ([1]; human, in vivo): 2 (8.0)
Elevated bilirubin, number of patients with ≥ grade III ([1]; human, in vivo): 0
Elevated serum alkaline phosphatase, number of patients with grade I/II at > 5% incidence ([1]; human, in vivo): 3 (12.0)
Elevated serum alkaline phosphatase, number of patients with ≥ grade III ([1]; human, in vivo): 0
Elevated serum lactate dehydrogenase, number of patients with grade I/II at > 5% incidence ([1]; human, in vivo): 11 (44.0)
Elevated serum lactate dehydrogenase, number of patients with ≥ grade III ([1]; human, in vivo): 1 (4.0)
Elevated serum α-hydroxybutyrate dehydrogenase, number of patients with grade I/II at > 5% incidence ([1]; human, in vivo): 6 (24.0)
Elevated serum α-hydroxybutyrate dehydrogenase, number of patients with ≥ grade III ([1]; human, in vivo): 1 (4.0)
Elevated γ-glutamyltransferase, number of patients with grade I/II at > 5% incidence ([1]; human, in vivo): 2 (8.0)
Elevated γ-glutamyltransferase, number of patients with ≥ grade III ([1]; human, in vivo): 0
Fatigue, number of patients with grade I/II at > 5% incidence ([1]; human, in vivo): 2 (8.0)
Fatigue, number of patients with ≥ grade III ([1]; human, in vivo): 0
Fever, number of patients with grade I/II at > 5% incidence ([1]; human, in vivo): 2 (8.0)
Fever, number of patients with ≥ grade III ([1]; human, in vivo): 0
Hyperbilirubinemia, number of patients with grade I/II at > 5% incidence ([1]; human, in vivo): 3 (12.0)
Hyperbilirubinemia, number of patients with ≥ grade III ([1]; human, in vivo): 0
Hyperuricemia, number of patients with grade I/II at > 5% incidence ([1]; human, in vivo): 5 (20.0)
Hyperuricemia, number of patients with ≥ grade III ([1]; human, in vivo): 3 (12.0)
Leukocytosis, number of patients with grade I/II at > 5% incidence ([1]; human, in vivo): 2 (8.0)
Leukocytosis, number of patients with ≥ grade III ([1]; human, in vivo): 0
Leukopenia, number of patients with grade I/II at > 5% incidence ([1]; human, in vivo): 11 (44.0)
Leukopenia, number of patients with ≥ grade III ([1]; human, in vivo): 2 (8.0)
Lymphocythemia, number of patients with grade I/II at > 5% incidence ([1]; human, in vivo): 3 (12.0)
Lymphocythemia, number of patients with ≥ grade III ([1]; human, in vivo): 2 (8.0)
Maculopapule, number of patients with grade I/II at > 5% incidence ([1]; human, in vivo): 2 (8.0)
Maculopapule, number of patients with ≥ grade III ([1]; human, in vivo): 0
Neutropenia, number of patients with grade I/II at > 5% incidence ([1]; human, in vivo): 17 (68.0)
Neutropenia, number of patients with ≥ grade III ([1]; human, in vivo): 11 (44.0)
Oropharyngeal pain, number of patients with grade I/II at > 5% incidence ([1]; human, in vivo): 2 (8.0)
Oropharyngeal pain, number of patients with ≥ grade III ([1]; human, in vivo): 0
Pneumonia, number of patients with grade I/II at > 5% incidence ([1]; human, in vivo): 4 (16.0)
Pneumonia, number of patients with ≥ grade III ([1]; human, in vivo): 4 (16.0)
Pneumonitis, number of patients with grade I/II at > 5% incidence ([1]; human, in vivo): 3 (12.0)
Pneumonitis, number of patients with ≥ grade III ([1]; human, in vivo): 2 (8.0)
Proteinuria, number of patients with grade I/II at > 5% incidence ([1]; human, in vivo): 4 (16.0)
Proteinuria, number of patients with ≥ grade III ([1]; human, in vivo): 0
Thrombocytopenia, number of patients with grade I/II at > 5% incidence ([1]; human, in vivo): 5 (20.0)
Thrombocytopenia, number of patients with ≥ grade III ([1]; human, in vivo): 1 (4.0)
Weight gain, number of patients with grade I/II at > 5% incidence ([1]; human, in vivo): 2 (8.0)
Weight gain, number of patients with ≥ grade III ([1]; human, in vivo): 1 (4.0)
Weight loss, number of patients with grade I/II at > 5% incidence ([1]; human, in vivo): 3 (12.0)
Weight loss, number of patients with ≥ grade III ([1]; human, in vivo): 0
dose-limiting toxicity (DLT) ([1]; human, in vivo): no patients experienced DLT
drug-related AE elevated lactate dehydrogenase ([1]; human, in vivo): 44.0%
drug-related AE elevated α-hydroxybutyrate dehydrogenase ([1]; human, in vivo): 24.0%
drug-related AE hyperuricemia ([1]; human, in vivo): 20.0%
drug-related AE leukopenia ([1]; human, in vivo): 44.0%
drug-related AE neutropenia ([1]; human, in vivo): 68.0%
drug-related AE thrombocytopenia ([1]; human, in vivo): 20.0%
drug-related AE ≥ grade III hyperuricemia ([1]; human, in vivo): 12.0%
drug-related AE ≥ grade III leukopenia ([1]; human, in vivo): 8.0%
drug-related AE ≥ grade III lymphocythemia ([1]; human, in vivo): 8.0%
drug-related AE ≥ grade III neutropenia ([1]; human, in vivo): 44.0%
drug-related AE ≥ grade III pneumonia ([1]; human, in vivo): 16.0%
drug-related AE ≥ grade III pneumonitis ([1]; human, in vivo): 8.0%
grade IV hyperuricemia ([1]; human, in vivo): 3 cases
grade IV neutropenia ([1]; human, in vivo): 4
grade V AEs ([1]; human, in vivo): no grade V AEs occurred
incidence of diarrhea, colitis, and hepatotoxicities ([1]; human, in vivo): very low
number of ≥ grade III AEs ([1]; human, in vivo): 32
patients who experienced SAEs ([1]; human, in vivo): 52.0%
patients who experienced drug-related AEs (so in the source) ([1]; human, in vivo): 36.0%
patients with ≥ 1 AE ([1]; human, in vivo): 25 patients

— paper PMC8381505, “Phase 1 clinical trial of the PI3Kδ inhibitor YY-20394 in patients with B-cell hematological malignancies” (Journal of Hematology & Oncology, 2021)
